Data as given in patent publication US5892029A, “3-hydroxy-2(1H)-pyridinone chelating agents” (priority 1997, dated 1999).
Where two headings read alike, the source gives them in different places.

Assays:
[1] = 30 μmol/kg i.p. at 1 h; reported previously (footnote e); cited from earlier work
[2] = type: in vivo, mice; conditions: for body weight / plasma urea N: mean ± SD
Method: The test of acute toxicity of these novel ligands was carried out as follows. […] The ligand was dissolved in 0.5 to 1.0 ml of saline at pH 7 to 8. After a period of observation, the mice were killed, selected tissues were removed and fixed for histopathological examination,and unusual findings at autopsy were recorded.

[3] = Liquid/liquid extraction of Pu(IV) from aqueous solution (Tables 7 and 8)
Method: Liquid/liquid extractions were performed with the radioactive plutonium isotope ^242 Pu at the Lawrence Livermore National Laboratory's Glenn T. Seaborg Institute for Transactinium Science, Livermore, Calif. The aqueous phase contained ^242 Pu, while the organic phases contained 3,2-HOPO ligands at 2-5 mM concentration. Kinetic studies were the primary method used to determine the efficacy of the specific ligand in organic solvent. Generally, five microcentrifuge tubes were prepared with the same organic and aqueous phases, and shaken with a vortex-style mixer for 1, 5, 10, and 20 minutes. After mixing, an aliquot of each phase was pipetted from the tube into a scintillation vial, mixed with a scintillation cocktail, and scintillation counted to determine the amount of the radioactive species present in each phase after extraction.

[4] = protocol I: 100 μmol/kg × 10 daily i.p., 11 d
[5] = protocol I: 100 μmol/kg × 10 daily i.p., 21 d
[6] = protocol II: 500 μmol/kg × 2 in 8 h i.p., 8 d
[7] = octanol, 0.10M aqueous, 1.0 min
[8] = octanol, 0.10M aqueous, 5.0 min
[9] = octanol, 0.10M aqueous, 10.0 min
[10] = octanol, 0.10M aqueous, 20.0 min
[11] = octanol, 5.0M aqueous, 10.0 min
[12] = octanol, 5.0M aqueous, 20.0 min

Row | Compound | 238Pu excreta: feces and GI contents [1] | 238Pu excreta: urine 0-24 h [1] | 238Pu in kidneys at 24 h [1] | 238Pu in liver at 24 h [1] | 238Pu in skeleton at 24 h [1] | 238Pu in soft tissue at 24 h [1] | 238Pu in whole body at 24 h [1] | % Pu(IV) Extracted ([3]; MIBK, 0.10M aqueous, 1.0 min) | Partition Coefficient ([3]; MIBK, 0.10M aqueous, 1.0 min) | % Pu(IV) Extracted ([3]; MIBK, 0.10M aqueous, 5.0 min) | Partition Coefficient ([3]; MIBK, 0.10M aqueous, 5.0 min) | % Pu(IV) Extracted ([3]; MIBK, 0.10M aqueous, 10.0 min) | Partition Coefficient ([3]; MIBK, 0.10M aqueous, 10.0 min) | % Pu(IV) Extracted ([3]; MIBK, 0.10M aqueous, 20.0 min) | Partition Coefficient ([3]; MIBK, 0.10M aqueous, 20.0 min) | % Pu(IV) Extracted ([3]; MIBK, 5.0M aqueous, 1.0 min) | Partition Coefficient ([3]; MIBK, 5.0M aqueous, 1.0 min) | % Pu(IV) Extracted ([3]; MIBK, 5.0M aqueous, 5.0 min) | Partition Coefficient ([3]; MIBK, 5.0M aqueous, 5.0 min) | % Pu(IV) Extracted ([3]; MIBK, 5.0M aqueous, 10.0 min) | further results
1 | CC(=O)N(O)CCCCCNC(=O)CCC(=O)N(O)CCCCCNC(=O)CCC(=O)N(O)CCCCCNC(=O)c1cccc(=O)n1O [DFO-(1,2-HOPO)] | 46.7% of injected ^238 Pu | 9.5% of injected ^238 Pu | 0.1% of injected ^238 Pu | 5.1 ± 2.2% of injected ^238 Pu | 6.0 ± 0.5% of injected ^238 Pu | 2.3 ± 0.5% of injected ^238 Pu | 13 ± 2.9% of injected ^238 Pu | – | – | – | – | – | – | – | – | – | – | – | – | – | –
2 | CC(=O)N(O)CCCCCNC(=O)CCC(=O)N(O)CCCCCNC(=O)CCC(=O)N(O)CCCCCNC(=O)c1ccn(C)c(=O)c1O [DFO-Me-3,2-HOPO] | 26.4% of injected ^238 Pu | 21% of injected ^238 Pu | 3.0% of injected ^238 Pu | 13 ± 3.5% of injected ^238 Pu | 17 ± 2.4% of injected ^238 Pu | 19 ± 3.0% of injected ^238 Pu | 53 ± 3.4% of injected ^238 Pu | – | – | – | – | – | – | – | – | – | – | – | – | – | –
3 | Cn1ccc(C(=O)NCCN(CCNC(=O)c2ccn(C)c(=O)c2O)CCN(CCNC(=O)c2ccn(C)c(=O)c2O)CCNC(=O)c2ccn(C)c(=O)c2O)c(O)c1=O [H(2,2)-Me-3,2-HOPO, N,N,N',N'-tetrakis[(3-hydroxy-1-methyl-2-oxo-1,2-dihydropyridin-4-yl)carboxamido-ethyl]-ethylenediamine] | – | – | – | – | – | – | – | – | – | – | – | – | – | – | – | – | – | – | – | – | body weight [2, 4]: 92 ± 6 percent control; plasma urea N [2, 4]: 223 ± 28 percent control; no. of survivors ([2]; protocol I: 100 μmol/kg × 10 daily i.p., 11 d, of 5 mice): 5; body weight [2, 5]: 87 ± 9 percent control; plasma urea N [2, 5]: 225 ± 188 percent control; no. of survivors ([2]; protocol I: 100 μmol/kg × 10 daily i.p., 21 d, of 5 mice): 5; body weight [2, 6]: 94 ± 6 percent control; plasma urea N [2, 6]: 169 ± 10 percent control; no. of survivors ([2]; protocol II: 500 μmol/kg × 2 in 8 h i.p., 8 d, of 19 (TREN) or 10 (H(2,2)) mice): 3
4 | O=C(NCc1cc(CNC(=O)c2cccc(=O)n2O)cc(CNC(=O)c2cccc(=O)n2O)c1)c1cccc(=O)n1O [ME-(1,2-HOPO)] | 43% of injected ^238 Pu | 9.6% of injected ^238 Pu | 1.8% of injected ^238 Pu | 18 ± 6.3% of injected ^238 Pu | 17 ± 2.5% of injected ^238 Pu | 10 ± 1.8% of injected ^238 Pu | 47 ± 9.4% of injected ^238 Pu | – | – | – | – | – | – | – | – | – | – | – | – | – | –
5 | CCCCCCCCCCNC(=O)c1ccn(C)c(=O)c1O [Me-2-HOPO-Decylamide] | – | – | – | – | – | – | – | 98.2 ± 4.5% | 53.63 ± 1.60 | 95.9 ± 4.4% | 23.40 ± 1.14 | 97.7 ± 4.5% | 42.43 ± 1.43 | 93.2 ± 4.3% | 13.63 ± 0.82 | 97.9 ± 4.5% | 46.00 ± 1.48 | 97.9 ± 4.5% | 46.62 ± 1.43 | 95.8 ± 4.4% | Partition Coefficient ([3]; MIBK, 5.0M aqueous, 10.0 min): 22.87 ± 1.07; % Pu(IV) Extracted ([3]; MIBK, 5.0M aqueous, 20.0 min): 81.9 ± 3.8%; Partition Coefficient ([3]; MIBK, 5.0M aqueous, 20.0 min): 4.52 ± 0.35; % Pu(IV) Extracted [3, 7]: 68.9 ± 3.3%; Partition Coefficient [3, 7]: 2.22 ± 0.19; % Pu(IV) Extracted [3, 8]: 96.2 ± 4.5%; Partition Coefficient [3, 8]: 25.39 ± 1.12; % Pu(IV) Extracted [3, 9]: 95.2 ± 4.4%; Partition Coefficient [3, 9]: 19.71 ± 1.00; % Pu(IV) Extracted [3, 10]: 92.4 ± 4.3%; Partition Coefficient [3, 10]: 12.11 ± 0.75; % Pu(IV) Extracted ([3]; octanol, 5.0M aqueous, 1.0 min): 98.3 ± 4.6%; Partition Coefficient ([3]; octanol, 5.0M aqueous, 1.0 min): 56.64 ± 1.58; % Pu(IV) Extracted ([3]; octanol, 5.0M aqueous, 5.0 min): 96.4 ± 4.5%; Partition Coefficient ([3]; octanol, 5.0M aqueous, 5.0 min): 26.98 ± 1.13; % Pu(IV) Extracted [3, 11]: 93.6 ± 4.4%; Partition Coefficient [3, 11]: 14.74 ± 0.83; % Pu(IV) Extracted [3, 12]: 88.3 ± 4.1%; Partition Coefficient [3, 12]: 7.51 ± 0.53
6 | CCCCCCCCNC(=O)c1ccn(C)c(=O)c1O [Me-2-HOPO-Octylamide] | – | – | – | – | – | – | – | 95.6 ± 4.4% | 21.90 ± 1.09 | 91.8 ± 4.3% | 11.22 ± 0.73 | 96.8 ± 4.5% | 30.07 ± 1.26 | 96.5 ± 4.5% | 27.56 ± 0.76 | 98.8 ± 4.6% | 79.22 ± 1.71 | 98.2 ± 4.6% | 53.99 ± 1.54 | 96.4 ± 4.5% | Partition Coefficient ([3]; MIBK, 5.0M aqueous, 10.0 min): 26.82 ± 1.18; % Pu(IV) Extracted ([3]; MIBK, 5.0M aqueous, 20.0 min): 83.9 ± 3.9%; Partition Coefficient ([3]; MIBK, 5.0M aqueous, 20.0 min): 5.20 ± 0.40; % Pu(IV) Extracted [3, 7]: 94.4 ± 4.4%; Partition Coefficient [3, 7]: 16.83 ± 0.89; % Pu(IV) Extracted [3, 8]: 94.5 ± 4.5%; Partition Coefficient [3, 8]: 17.10 ± 1.12; % Pu(IV) Extracted [3, 9]: 92.1 ± 4.3%; Partition Coefficient [3, 9]: 11.71 ± 0.72; % Pu(IV) Extracted [3, 10]: 91.2 ± 4.2%; Partition Coefficient [3, 10]: 10.32 ± 0.67; % Pu(IV) Extracted ([3]; octanol, 5.0M aqueous, 1.0 min): 97.8 ± 4.1%; Partition Coefficient ([3]; octanol, 5.0M aqueous, 1.0 min): 44.22 ± 1.43; % Pu(IV) Extracted ([3]; octanol, 5.0M aqueous, 5.0 min): 97.4 ± 4.5%; Partition Coefficient ([3]; octanol, 5.0M aqueous, 5.0 min): 36.91 ± 1.30; % Pu(IV) Extracted [3, 11]: 95.2 ± 4.4%; Partition Coefficient [3, 11]: 19.78 ± 0.98; % Pu(IV) Extracted [3, 12]: 91.4 ± 4.3%; Partition Coefficient [3, 12]: 10.69 ± 0.67
